Here are results for one compound from patent EP4632836A1, “BATTERIES FOR OPERATION ACROSS TEMPERATURES AND RELATED METHODS” (Massachusetts Institute of Technology, priority 2024, dated 2025).

The nature of this data set: Electrode soaking test in electrolyte (coloration of electrolyte). It counts as physicochemical. To be noted: electrodes with 90 wt.% of TAQ soaked in 2 mL of 1 M LiTFSI in DOL/DME (1/1 vol.%), -20 °C to 70 °C, 24 hours; no coloration of electrolyte. The source says: The high-temperature performance of organic cathode materials for LIBs depends on the solubility of the active materials in organic electrolytes as dissolution leads to rapid capacity decay, dramatically reducing the cycling lifetime. On the other hand, the performance of LIBs at low temperatures is heavily dependent on the charge transport and transfer resistance, as well as the solid-state Li^+ diffusion resistance of the electrode. The solubility of TAQ electrodes and deeply lithiated TAQ (Lix-TAQ, 3<x<4) electrodes in a commercially available electrolyte (1 M LiTFSI in DOL/DME (1/1 vol.%)) under various temperatures was evaluated (FIGS. 24C and 31). […] The electrodes were soaked in 2 mL of electrolyte, and kept under various temperatures ranging from -20 °C to 70 °C for 24 hours. […] This insolubility stems from strong intermolecular hydrogen bonding between TAQ molecules and interlayer π- π stacking, which both persist even upon deep lithiation.

As to `Nc1c(N)c(=O)c2[nH]c3c(=O)c(N)c(N)c(=O)c3[nH]c2c1=O` [TAQ, bis-tetraaminobenzoquinone], the solubility of electrodes result is “complete insolubility”.
